Legend:
Assay type in all cases: in vivo, rat
sciatic nerve [1] = experiment: Counts of myelinated and unmyelinated axons 5.0 mm distal to repair by electron microscopy; conditions: Electron Microscopy; for #Myelinated Axons / #Unmyelinated Axons: 5.0mm. Distal to Repair, 12 mg/kg in 5% DMSO, bath + i.m. twice weekly
Experimental: (§1) lwenty raty art anenthetizve with sel rompun (0.5 cc total volume). The right sciatic nerve is exposed and severed with microneuroscissors, and subsequently repaired microsurgically with 6-8 circumferential microsutures using 10-0 nylon. Immediately following surgery the treated animals receive 12 mg/kg Ac leupeptin in 5% DMSO (dimethylsulphoxide) as a bath on their sciatic nerve, 0.25 cc. total volume. Then the treated animals are injected intramuscularly in right hindlimb with 0.25 cc of a solution containing 12 mg/kg Ac leupeptin in 5% DMSO. Control animals receive the same surgical treatment, but the bath and intramuscular injection consist only of the solvent and 5% DMSO.
(§2) Thereafter, treated animals are injected twice weekly in the operated hindlimb with 12 mg/kg Ac leupeptin in 5% DMSO (0.25 cc total volume) for periods of 1 week, 1 month, two months, three months - and six months. Control animals are injected with 0.25 cc of 5% DMSO twice weekly in the operated hindlimb for the same time period.
(§3) Two treated and two control animals are assigned to each of the stated time periods.
(§4) A ten mm. portion of the repaired sciatic nerve is excised from each animal. This is fixed in 3.0% glutaraldehyde in 0.1 M sodium cacodylate, pH 7.3, overnight for electron microscopy. After post-fixation in 1.0% osmium tetroxide, ethanol dehydration and embedding in Polybed 812, both thick (1 micron) and thin (500 A°) transverse sections are cut on a ultramicrotome. Portions of the excised muscles receive similar preparation for electron microscopy.
(§5) Thick sections of the sciatic nerve are placed on microscope slots stained with toluidine blue and photographed at a constant magnification in the light microscope. Thin sections of both nerve and muscles are placed on 300 mesh copper grid calm, stained with uranyl acetate and lead citrate and photographed using a Hitachi HU-12 electron microscope.

sciatic nerve [2] = experiment: Counts of myelinated axons 5.0 mm proximal to repair by light microscopy; conditions: for Counts of Myelinated Axons - 5.0mm. Proximal to Repair by Light Microscopy 1.0 X 10^5 µm^2 - of Area: 12 mg/kg in 5% DMSO, bath + i.m. twice weekly; for % Difference: treated vs. control
Experimental: as §1, §2, §3, §4, §5

sciatic nerve [3] = experiment: Counts of myelinated axons 5.0 mm distal to repair by light microscopy; conditions: for Counts of Myelinated Axons - 5.0 mm Distal to Repair by Light Microscopy 1.0 X 10^5 µm^2 - of Area: 12 mg/kg in 5% DMSO, bath + i.m. twice weekly; for % Difference Treated vs. Control: myelinated axons distal, light microscopy
Experimental: as §1, §2, §3, §4, §5

[4] = test system: muscles of the operated hindlimb; experiment: Wet weight of hindlimb muscles after sciatic nerve severing and microsurgical repair; conditions: 12 mg/kg in 5% DMSO, bath + i.m. twice weekly
Experimental: as §1, §2, §3
All animals are sacrified by an overdose of pentobarbital, 1.0 cc total volume. The gastro- cnemius, soleus and extensor digitorum longus muscles of the operated hindlimb are execised from origin to insertion, weighed and then frozen in isopentane in liquid nitrogen […]. For light microscopy, cryostat sections are cut, placed on slides and stained with hematoxylin and eosin and/or ATPase histochemistry at pH's of 4.3 and 10.4. Myofiber diameters are determined by photographing hematoxylin and eosin sections at a constant magnification in the light microscope.

## CC(=O)N[C@@H](CC(C)C)C(=O)N[C@@H](CC(C)C)C(=O)N[C@H](C=O)CCCNC(=N)N [Ac leupeptin, acetyl-L-leu-L-leu-L-argininal]
Sciatic nerve [1]; One month treated
  #Myelinated Axons: 1.2 Per 200 μm^2 of Area
  #Unmyelinated Axons: 8 Per 200 μm^2 of Area
Sciatic nerve [1]; One week treated
  #Myelinated Axons: 4.25 Per 200 μm^2 of Area
  #Unmyelinated Axons: 11.0 Per 200 μm^2 of Area
Sciatic nerve [1]; Six Month Treated
  #Myelinated Axons: 5 Per 200 μm^2 of Area
  #Unmyelinated Axons: 8.7 Per 200 μm^2 of Area
Sciatic nerve [1]; Three month treated
  #Myelinated Axons: 9.0 Per 200 μm^2 of Area
  #Unmyelinated Axons: 12.9 Per 200 μm^2 of Area
Sciatic nerve [1]; Two Month Treated
  #Myelinated Axons: 6 Per 200 μm^2 of Area
  #Unmyelinated Axons: 18 Per 200 μm^2 of Area
Sciatic nerve [1]; #Myelinated Axons distal, One month
  % Difference Treated vs. Control: 25%
Sciatic nerve [1]; #Myelinated Axons distal, One week
  % Difference Treated vs. Control: 53%
Sciatic nerve [1]; #Myelinated Axons distal, Six Month
  % Difference Treated vs. Control: 1%
Sciatic nerve [1]; #Myelinated Axons distal, Three month
  % Difference Treated vs. Control: 58%
Sciatic nerve [1]; #Myelinated Axons distal, Two Month
  % Difference Treated vs. Control: 0%
Sciatic nerve [1]; #Unmyelinated Axons distal, One month
  % Difference Treated vs. Control: 70%
Sciatic nerve [1]; #Unmyelinated Axons distal, One week
  % Difference Treated vs. Control: >100%
Sciatic nerve [1]; #Unmyelinated Axons distal, Six Month
  % Difference Treated vs. Control: +30%
Sciatic nerve [1]; #Unmyelinated Axons distal, Three month
  % Difference Treated vs. Control: 61%
Sciatic nerve [1]; #Unmyelinated Axons distal, Two Month
  % Difference Treated vs. Control: 50%
Sciatic nerve [2]; One Month Treated
  Counts of Myelinated Axons - 5.0mm. Proximal to Repair by Light Microscopy 1.0 X 10^5 µm^2 - of Area: 1162 1.0 X 10^5 µm^2 - of Area
Sciatic nerve [2]; One Week Treated
  Counts of Myelinated Axons - 5.0mm. Proximal to Repair by Light Microscopy 1.0 X 10^5 µm^2 - of Area: 1089 1.0 X 10^5 µm^2 - of Area
Sciatic nerve [2]; Six Month Treated
  Counts of Myelinated Axons - 5.0mm. Proximal to Repair by Light Microscopy 1.0 X 10^5 µm^2 - of Area: 1748 1.0 X 10^5 µm^2 - of Area
Sciatic nerve [2]; Three Month Treated
  Counts of Myelinated Axons - 5.0mm. Proximal to Repair by Light Microscopy 1.0 X 10^5 µm^2 - of Area: 2200 1.0 X 10^5 µm^2 - of Area
Sciatic nerve [2]; Two Month Treated
  Counts of Myelinated Axons - 5.0mm. Proximal to Repair by Light Microscopy 1.0 X 10^5 µm^2 - of Area: 1111 1.0 X 10^5 µm^2 - of Area
Sciatic nerve [2]; myelinated axons proximal, light microscopy, One Month
  % Difference Treated Vs. Control: +7%
Sciatic nerve [2]; myelinated axons proximal, light microscopy, One Week
  % Difference Treated vs. Control: +16%
Sciatic nerve [2]; myelinated axons proximal, light microscopy, Six Month
  % Difference Treated vs. Control: +30%
Sciatic nerve [2]; myelinated axons proximal, light microscopy, Three Month
  % Difference: +46%
Sciatic nerve [2]; myelinated axons proximal, light microscopy, Two Month
  % Difference: +8%
Sciatic nerve [3]; One Month Treated
  Counts of Myelinated Axons - 5.0 mm Distal to Repair by Light Microscopy 1.0 X 10^5 µm^2 - of Area: 1467 1.0 X 10^5 µm^2 - of Area
Sciatic nerve [3]; One Week Treated
  Counts of Myelinated Axons - 5.0 mm Distal to Repair by Light Microscopy 1.0 X 10^5 µm^2 - of Area: 722 1.0 X 10^5 µm^2 - of Area
Sciatic nerve [3]; Six Month Treated
  Counts of Myelinated Axons - 5.0 mm Distal to Repair by Light Microscopy 1.0 X 10^5 µm^2 - of Area: 1620 1.0 X 10^5 µm^2 - of Area
Sciatic nerve [3]; Three Month Treated
  Counts of Myelinated Axons - 5.0 mm Distal to Repair by Light Microscopy 1.0 X 10^5 µm^2 - of Area: 2808 1.0 X 10^5 µm^2 - of Area
Sciatic nerve [3]; Two Month Treated
  Counts of Myelinated Axons - 5.0 mm Distal to Repair by Light Microscopy 1.0 X 10^5 µm^2 - of Area: 1625 1.0 X 10^5 µm^2 - of Area
Sciatic nerve [3]; One Month
  % Difference Treated vs. Control: +2%
Sciatic nerve [3]; One Week
  % Difference Treated vs. Control: +1%
Sciatic nerve [3]; Six Month
  % Difference Treated vs. Control: 0%
Sciatic nerve [3]; Three Month
  % Difference Treated vs. Control: +1%
Sciatic nerve [3]; Two Month
  % Difference Treated vs. Control: +12%
[4]; One Month Treated, E.D.L.
  Average Wet Weight (g) of Muscles: 0.198 g
[4]; One Month Treated, GASTROCNEMIUS
  Average Wet Weight (g) of Muscles: .954 g
[4]; One Month Treated, SOLEUS
  Average Wet Weight (g) of Muscles: .379 g
[4]; One Week Treated, E.D.L.
  Average Wet Weight (g) of Muscles: 0.116 g
[4]; One Week Treated, GASTROCNEMIUS
  Average Wet Weight (g) of Muscles: 2.379 g
[4]; One Week Treated, SOLEUS
  Average Wet Weight (g) of Muscles: 0.335 g
[4]; Six Month Treated, E.D.L.
  Average Wet Weight (g) of Muscles: 0.163 g
[4]; Six Month Treated, GASTROCNEMIUS
  Average Wet Weight (g) of Muscles: 1.577 g
[4]; Six Month Treated, SOLEUS
  Average Wet Weight (g) of Muscles: 0.306 g
[4]; Three Month Treated, E.D.L.
  Average Wet Weight (g) of Muscles: 0.178 g
[4]; Three Month Treated, GASTROCNEMIUS
  Average Wet Weight (g) of Muscles: 1.563 g

Source: patent publication EP0100673A2, “A method of enhancing neurofiber regrowth” (THE RESEARCH FOUNDATION OF STATE UNIVERSITY OF NEW YORK, priority 1982, dated 1984)
